Data as given in ChEMBL document CHEMBL1287786, “Synthesis, antimicrobial and antioxidant evaluation of quinolines and bis(indolyl)methanes” (2010).

Columns and labels:
Assay type in all cases: functional
[1] = test system: Staphylococcus aureus; test: Antibacterial activity against Staphylococcus aureus ATCC 25923 at 1000 ug/ml after 24 hrs by cup plate method; conditions: ATCC 25923, 24 h, read-out: IZ
[2] = test system: Escherichia coli; test: Antibacterial activity against Escherichia coli ATCC 25922 at 1000 ug/ml after 24 hrs by cup plate method; conditions: ATCC 25922, 24 h, read-out: IZ
[3] = test system: Candida albicans; test: Antifungal activity against Candida albicans ATCC 10231 at 1000 ug/ml after 24 hrs by cup plate method; conditions: ATCC 10231, 24 h, read-out: IZ
[4] = test system: Radical scavenging activity; test: Antioxidant activity assessed as DPPH radical scavenging activity at 50 ug by spectrophotometry relative to control
[5] = test system: Radical scavenging activity; test: Antioxidant activity assessed as DPPH radical scavenging activity at 500 ug by spectrophotometry relative to control
[6] = test system: Radical scavenging activity; test: Antioxidant activity assessed as DPPH radical scavenging activity at 1000 ug by spectrophotometry relative to control
[7] = Antioxidant activity assessed as hydrogen peroxide radical scavenging activity by spectrophotometry relative to control; set-up: concentration or dose not given beside the values
[8] = Antioxidant activity assessed as hydrogen peroxide radical scavenging activity after 10 mins by spectrophotometry relative to control; set-up: concentration or dose not given beside the values
[9] = Antioxidant activity assessed as hydrogen peroxide radical scavenging activity after 20 mins by spectrophotometry relative to control; set-up: concentration or dose not given beside the values
[10] = Antioxidant activity assessed as hydrogen peroxide radical scavenging activity after 30 mins by spectrophotometry relative to control; set-up: concentration or dose not given beside the values
[11] = Antioxidant activity assessed as hydrogen peroxide radical scavenging activity after 40 mins by spectrophotometry relative to control; set-up: concentration or dose not given beside the values

SMILES	zone of inhibition at 1000 µg/mL [1]	zone of inhibition at 1000 µg/mL [2]	zone of inhibition at 1000 µg/mL [3]	Activity [4]	Activity [5]	Activity [6]	Activity [7]	Activity [8]	Activity [9]	Activity [10]	Activity [11]
Clc1ccc2nc(-c3ccccc3)cc(-c3ccccc3)c2c1	21 mm	18 mm	16 mm	–	–	–	–	–	–	–	–
COc1cc(C(c2c(-c3ccccc3)[nH]c3ccccc23)c2c(-c3ccccc3)[nH]c3ccccc23)cc(Br)c1O	22 mm	24 mm	26 mm	27%	64%	70%	82%	81%	74%	71%	65%
c1ccc(-c2ccc(C(c3c(-c4ccccc4)[nH]c4ccccc34)c3c(-c4ccccc4)[nH]c4ccccc34)cc2)cc1	26 mm	26 mm	25 mm	22%	55%	75%	87%	83%	75%	70%	59%
Brc1cc2c(cc1C(c1c(-c3ccccc3)[nH]c3ccccc13)c1c(-c3ccccc3)[nH]c3ccccc13)OCO2	25 mm	23 mm	24 mm	10%	23%	42%	57%	43%	39%	30%	21%
CCn1c2ccccc2c2cc(C(c3c(-c4ccccc4)[nH]c4ccccc34)c3c(-c4ccccc4)[nH]c4ccccc34)ccc21	24 mm	23 mm	24 mm	15%	42%	73%	85%	80%	82%	75%	65%
c1ccc(-c2cc(-c3ccccn3)nc3ccccc23)cc1	23 mm	18 mm	18 mm	–	–	–	–	–	–	–	–
Cc1cc(C(C)(C)C)c(O)c(C(C)(C)C)c1	–	–	–	–	–	–	92%	86%	83%	82%	80%
O=C(O)c1ccc(C(c2c(-c3ccccc3)[nH]c3ccccc23)c2c(-c3ccccc3)[nH]c3ccccc23)cc1	24 mm	19 mm	16 mm	17%	48%	80%	60%	45%	45%	35%	24%
O=C1O[C@H]([C@@H](O)CO)C(O)=C1O	–	–	–	96%	97%	99%	–	–	–	–	–
Cc1ccccc1-c1cc(-c2ccccc2)c2ccccc2n1	15 mm	18 mm	15 mm	–	–	–	–	–	–	–	–
Cc1ccc2nc(-c3cccc(Br)c3)cc(-c3ccccc3)c2c1	24 mm	22 mm	21 mm	–	–	–	–	–	–	–	–
c1ccc(-c2cc(-c3ccccc3)c3ccccc3n2)cc1	18 mm	17 mm	13 mm	–	–	–	–	–	–	–	–
Clc1ccc(-c2nn(-c3ccccc3)cc2C(c2c(-c3ccccc3)[nH]c3ccccc23)c2c(-c3ccccc3)[nH]c3ccccc23)cc1	19 mm	15 mm	12 mm	21%	65%	87%	83%	82%	81%	80%	79%
COc1cccc(-c2cc(-c3ccccc3)c3ccccc3n2)c1	21 mm	23 mm	14 mm	–	–	–	–	–	–	–	–
Cc1cc(-c2ccccc2)nc2ccccc12	14 mm	20 mm	16 mm	–	–	–	–	–	–	–	–
c1ccc(-c2[nH]c3ccccc3c2C(c2ccc3c(c2)-c2ccccc2C3)c2c(-c3ccccc3)[nH]c3ccccc23)cc1	24 mm	18 mm	18 mm	19%	66%	85%	88%	85%	76%	73%	70%
COc1cc(Br)c(C(c2c(-c3ccccc3)[nH]c3ccccc23)c2c(-c3ccccc3)[nH]c3ccccc23)cc1OC	12 mm	14 mm	16 mm	21%	52%	69%	86%	85%	74%	72%	69%
Cc1ccc(-c2cc(-c3ccccc3)c3ccccc3n2)cc1	24 mm	17 mm	19 mm	–	–	–	–	–	–	–	–
Cc1ccc(-c2cc(-c3ccccc3)c3cc(Cl)ccc3n2)cc1	22 mm	22 mm	23 mm	–	–	–	–	–	–	–	–
CCCCc1cc(-c2ccccc2)c2ccccc2n1	20 mm	19 mm	15 mm	–	–	–	–	–	–	–	–
CCCCCc1ccc(-c2cc(C)c3ccccc3n2)cc1	21 mm	18 mm	18 mm	–	–	–	–	–	–	–	–
Brc1cccc(-c2cc(-c3ccccc3)c3ccccc3n2)c1	14 mm	12 mm	10 mm	–	–	–	–	–	–	–	–
Clc1nc2ccccc2cc1C(c1c(-c2ccccc2)[nH]c2ccccc12)c1c(-c2ccccc2)[nH]c2ccccc12	18 mm	15 mm	18 mm	2%	12%	35%	84%	83%	80%	73%	68%
Cn1c(C(c2c(-c3ccccc3)[nH]c3ccccc23)c2c(-c3ccccc3)[nH]c3ccccc23)cc2ccccc21	13 mm	16 mm	14 mm	19%	63%	76%	43%	35%	21%	20%	16%
c1ccc(-c2[nH]c3ccccc3c2C(c2cccc3ccccc23)c2c(-c3ccccc3)[nH]c3ccccc23)cc1	23 mm	16 mm	10 mm	25%	58%	76%	93%	84%	82%	77%	71%
C[C@@H]1[C@H](O)[C@@H](C)/C=C/C=C/C=C/C=C/C=C/C=C/C=C/[C@H](O[C@@H]2O[C@H](C)[C@@H](O)[C@H](N)[C@@H]2O)C[C@@H]2O[C@](O)(C[C@@H](O)C[C@@H](O)[C@H](O)CC[C@@H](O)C[C@@H](O)CC(=O)O[C@H]1C)C[C@H](O)[C@H]2C(=O)O [AMPHOTERICIN B]	–	–	20 mm	–	–	–	–	–	–	–	–
